Reference: PubChem BioAssay (NCI)
Values joined by “and” are separate entries in the source; they are usually repeats but may differ in a detail not shown here. Equal values may be shown once.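 How tested: cells in 96-well plates exposed to compound for 48 hours at five concentrations. Abbreviation: GI50, concentration required for 50% inhibition of growth. TGI is the concentration that stops growth completely.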

What was measured:
Assay in all cases: NCI anticancer screen, dose series, 48 h
COLO 205 colon = system: COLO 205 colon
HCT-116 colon = system: HCT-116 colon
HL-60(TB) leukemia = system: HL-60(TB) leukemia
MDA-MB-435 = system: MDA-MB-435
OVCAR-8 ovarian = system: OVCAR-8 ovarian
PC-3 prostate = system: PC-3 prostate
RPMI-8226 leukemia = system: RPMI-8226 leukemia
SK-OV-3 ovarian = system: SK-OV-3 ovarian
U251 CNS = system: U251 CNS
UACC-62 melanoma = system: UACC-62 melanoma

Structure (SMILES) | GI50 (COLO 205 colon) [µM] | TGI (COLO 205 colon) [µM] | GI50 (HCT-116 colon) | TGI (HCT-116 colon) | GI50 (HL-60(TB) leukemia) | TGI (HL-60(TB) leukemia) | GI50 (MDA-MB-435) | TGI (MDA-MB-435) | GI50 (OVCAR-8 ovarian) | TGI (OVCAR-8 ovarian) [µM] | GI50 (PC-3 prostate) | TGI (PC-3 prostate) | GI50 (RPMI-8226 leukemia) | TGI (RPMI-8226 leukemia) | GI50 (SK-OV-3 ovarian) | TGI (SK-OV-3 ovarian) | GI50 (U251 CNS) | TGI (U251 CNS) | GI50 (UACC-62 melanoma) | TGI (UACC-62 melanoma)
CC(C)[C@@H](C(=O)O[C@@H]1/C=C/C(=O)O[C@@H](C)CCC/C=C/[C@@H]2C[C@H](O)C[C@H]21)[N+](C)(C)C | > 100 | > 100 | > 100 µM | > 100 µM | > 100 µM | > 100 µM | > 100 µM | > 100 µM | > 100 µM | > 100 | > 100 µM | > 100 µM | > 100 µM | > 100 µM | > 100 µM | > 100 µM | > 100 µM | > 100 µM | > 100 µM | > 100 µM
Cc1sc2nc(-c3ccccn3)c(/C=N/N=C(N)N)n2c1C | 4.97 | 11.4 | 4.09 µM | 9.74 µM | 4.48 µM | > 100 µM | 4.53 µM | 10.1 µM | 6.65 µM | 68.1 | 10.2 µM | 28.6 µM | 4.23 µM | 12.1 µM | 9.14 µM | 20.1 µM | 9.3 µM | 21 µM | 4.19 µM | 10.4 µM
Cn1c2ccccc2c2cc(-c3ccccc3)c3c(c21)C(=O)C=CC3=O |  | 35.1 |  | 41.4 µM |  | 42.3 µM |  | 51.7 µM |  | 78.3 |  | 34.8 µM |  | 8.61 µM |  | > 100 µM |  | 39.4 µM |  | 44.7 µM
OC(COc1ccc(Cl)cc1Cl)CN1CCCC1 (centres undefined) |  | > 100 |  | > 100 µM |  | > 100 µM |  | > 100 µM |  | > 100 |  | > 100 µM |  | > 100 µM |  | > 100 µM |  | > 100 µM |  | 50.1 µM
NC1=CC(=O)C(=O)c2cccnc21 | 16.6 | 30.1 | 3 µM | 12.5 µM | 2.8 µM | 9.08 µM | 1.74 µM | 3.17 µM | 3.21 µM | 16.6 | 11.2 µM | 49.2 µM | 2.65 µM | 9.91 µM | 18.8 µM | 41.2 µM | 3.92 µM | 15.4 µM | 1.83 µM | 3.79 µM
O=S(=O)(NC(=S)Nc1ccccc1)c1ccc(N2N=C3c4ccccc4CC3C2c2ccc(Cl)cc2)cc1 (centres undefined) | 21.6 | 44.3 | 21.6 µM | 55.2 µM | 21 µM | 46.2 µM | 44.8 µM | > 100 µM | 26.8 µM | 71.1 | 13.8 µM | 28.1 µM | 19.6 µM | 66.7 µM | 40.7 µM | > 100 µM | 19.7 µM | 39.9 µM | 18.3 µM | 38.8 µM
O=C1Nc2ccccc2C12CC(c1ccccc1)=NN2 (centres undefined) | 4.62 | 25.9 | 4.83 µM | > 100 µM | 3.29 µM | 15.3 µM | 1.66 µM | 4.5 µM | 9.28 µM | 96.9 | 3.89 µM | > 100 µM | 5.53 µM | 90.5 µM | 9.12 µM | > 100 µM | 5.4 µM | > 100 µM | 4.38 µM | > 100 µM
O=C1CC(c2ccccc2)Cc2nc3ccc(Cl)cc3cc21 (centres undefined) | 0.344 | 3 | 0.0472 µM | > 49.5 µM | 0.143 µM | 0.566 µM | 0.0235 µM | 0.0649 µM | 0.386 µM | > 100 | 0.293 µM | > 100 µM | 2.78 µM | 37.8 µM | 0.753 µM | > 100 µM | 0.644 µM | > 62.2 µM | 0.15 µM | 35.5 µM
CN(C)CCCNC(=O)c1cc2c3ccccc3[nH]c2c2ncccc12 | 4.43 | 16.6 | 9.46 µM | 49.2 µM | 16 µM | 41.7 µM | 11.1 µM | 23.4 µM | 12.6 µM | > 100 | 24.9 µM | > 100 µM | 7.42 µM | 32.8 µM | 20 µM | > 100 µM | 16.7 µM | 70 µM | 16 µM | 30.1 µM
O=C1C[C@@H](c2ccccc2)NCCCCN(O)CCCN1 |  | > 100 |  | > 100 µM |  | > 100 µM |  | > 100 µM |  | > 100 |  | > 100 µM |  | > 100 µM |  | > 100 µM |  | > 100 µM |  | > 100 µM
CC1=C[C@H]2c3c(c(O)c(O)c4oc5cc(O)cc(O)c5c(=O)c34)[C@H](c3cc(O)c(O)c4oc5cc(O)cc(O)c5c(=O)c34)[C@H]2C(C)(C)C1 | 2.65 | 7.33 | 0.462 µM and 0.947 µM | 1.87 µM and 2.22 µM | 2.04 µM and 2.1 µM | 5.72 µM and 10.6 µM | 0.962 µM and 1.29 µM | 2.67 µM and 3.12 µM | 2.38 µM and 3.39 µM |  | 1.96 µM and 1.8 µM | 7.41 µM and 5.46 µM | 0.915 µM and 0.392 µM | 4.57 µM and 2.04 µM | 2.05 µM and 2.27 µM | 5.13 µM and 8.28 µM | 0.789 µM and 1.08 µM | 3.26 µM and 17 µM | 1.18 µM and 1.31 µM | 2.59 µM and 3.07 µM
CC12C=CC(C)(O1)C1C2c2ccccc2S1(=O)=O (centres undefined) | > 100 | > 100 | 47.9 µM | > 100 µM | > 100 µM | > 100 µM | 52.1 µM | > 100 µM | > 100 µM | > 100 | 66.8 µM | > 100 µM | 44.3 µM | > 100 µM | > 100 µM | > 100 µM | > 100 µM | > 100 µM | > 100 µM | > 100 µM
COC(=O)Nc1nc2c(OC)c(OC)c(OC)cc2[nH]1 | 7.33 | 64.7 | 10.1 µM | > 100 µM | 6.33 µM | > 89.5 µM | 2.09 µM | 5.71 µM | 38.7 µM | > 100 | 24.2 µM | > 100 µM | 35.6 µM | > 100 µM | 30.8 µM | > 100 µM | 21.1 µM | > 100 µM | 13.3 µM | > 100 µM
Cc1cc(C)cc(Nc2nccc(-c3c(-c4ccc(F)cc4)ncn3C3CCNCC3)n2)c1 | 1.41 | 3.21 | 1.13 µM | 2.36 µM | 1.6 µM | 3.68 µM | 0.767 µM | 2.09 µM | 1.66 µM | 5.01 | 1.56 µM | 3.01 µM | 2.07 µM | 5.18 µM | 2.13 µM | 5.09 µM | 1.65 µM | 3.25 µM | 1.55 µM | 2.95 µM
